Measured values taken from US12492183B2, “Tetrahydroquinazoline derivatives as selective cytotoxic agents” (Merck Sharp & Dohme LLC, priority 2020, dated 2025).

What follows are compounds tested on PBMCs infected with VSV-G pseudotyped HIV virus (VSV-G/pNLG1-P2A-ΔEnv) (assay: cells). Conditions: Homo sapiens, PBMC, read-out: TACK EC50.
Type: cell-based
In the case of `Cc1nc(C)c(Cc2ccc3c(c2)NC(=O)N(CC(F)F)[C@]3(C#CC2CC2)C(F)(F)F)c(=O)[nH]1` [Example 24, (S)-4-(cyclopropylethynyl)-3-(2,2-difluoroethyl)-7-((2,4-dimethyl-6-oxo-1,6-dihydropyrimidin-5-l)meth-yl)-4-(trifluoromethyl)-3,4-dihydroquinazolin-2(1H)-one], the EC50 is reported as 0.146 µM. `N#Cc1c(Cc2ccc3c(c2)NC(=O)N[C@]3(C#CC2CC2)C(F)(F)F)ccnc1N` [Example 50, (S)-2-amino-4-((4-(cyclo-propylethynyl)-2-oxo-4-(trifluoromethyl)-1,2,3,4-tetrahydroquinazolin-7-yl)-methyl)nicotinonitrile] gave an EC50 of 0.0349 µM. In the case of `Nc1cc(Cc2cc3c(cc2F)[C@@](C#CC2CC2)(C(F)(F)F)NC(=O)N3)ccn1` [Example 14, (S)-2-amino-4-((4-(cyclopropyl-ethynyl)-6-fluoro-2-oxo-4-(trifluoromethyl)-1,2,3,4-tetra-hydroquinazolin-7-yl)methyl)-pyridin-1-ium 2,2,2-trifluoro-acetate], the EC50 is reported as 0.121 µM. `Nc1ncc(F)c(Cc2cc3c(cc2Cl)[C@@](C#CC2CC2)(C(F)(F)F)NC(=O)N3)n1` [Example 32, (S)-7-((2-amino-5-fluoropyr-imidin-4-yl)methyl)-6-chloro-4-(cyclopropylethynyl)-4-(trifluoromethyl)-3,4-dihydro-quinazolin-2(1H)-one] showed an EC50 of 0.156 µM. `O=C1Nc2cc(Cc3ccncc3)c(F)cc2[C@@](C#CC2CC2)(C(F)(F)F)N1` [Example 57, (S)-4-(cyclopropylethynyl)-6-fluoro-7-(pyridin-4-ylmethyl)-4-(trifluoromethyl)-3,4-dihydroquinazolin-2(1H)-one] was tested, and the EC50 was 0.12 µM. With `O=C1Nc2cc(Cc3ncc[nH]c3=O)ccc2[C@@](C#CC2CC2)(C(F)(F)F)N1` [Example 61, (S)-4-(cyclopropylethynyl)-7-((3-hydroxypyrazin-2-yl)methyl)-4-(trifluoromethyl)-3,4-dihydroquinazolin-2(1H)-one] the EC50 was 0.065 µM. `O=C1Nc2cc(Cc3ccccn3)c(F)cc2[C@@](C#CC2CC2)(C(F)(F)F)N1` [Example 53, (S)-4-(cyclopropylethynyl)-6-fluoro-7-(pyridin-2-ylmeth-yl)-4-(trifluoromethyl)-3,4-dihydroquinazolin-2(1H)-one] showed an EC50 of 0.137 µM. With `Cn1ccc(Cc2ccc3c(c2)NC(=O)N[C@]3(C#CC2CC2)C(F)(F)F)cc1=O` [Example 5, (S)-4-(cyclopropylethynyl)-7-((1-methyl-2-oxo-1,2-dihydropyridin-4-yl)methyl)-4-(trifluoromethyl)-3,4-dihydroquinazolin-2(1H)-one] the EC50 was 0.16 µM. In the case of `CC(F)(F)[C@@]1(C#CC2CC2)NC(=O)Nc2cc(Cc3ccnc(N)n3)c(F)cc21` [Example 47, (S)-7-((2-aminopyrimidin-4-yl)methyl)-4-(cyclopropylethynyl)-4-(1,1-difluoroethyl)-6-fluoro-3,4-dihydroquinazolin-2(1H)-one], the EC50 is reported as 0.0171 µM. In the case of `Cc1nc[nH]c(=O)c1Cc1ccc2c(c1)NC(=O)N[C@]2(C#CC1CC1)C(F)(F)F` [Example 18, (S)-4-(cyclopropylethynyl)-7-((4-methyl-6-oxo-1,6-dihydro-pyrimidin-5-yl)methyl)-4-(trifluoromethyl)-3,4-dihydro-quinazolin-2(1H)-one], the EC50 is reported as 0.174 µM. `N#Cc1c(Cc2cc3c(cc2F)[C@@](C#CC2CC2)(C(F)(F)F)NC(=O)N3)ccnc1N` [Example 52, (S)-2-amino-4-((4-(cyclo-propylethynyl)-6-fluoro-2-oxo-4-(trifluoromethyl)-1,2,3,4-tetrahydroquinazolin-7-yl)methyl)nicotinonitrile] was tested, and the EC50 was 0.0214 µM. `CN1C(=O)Nc2cc(Cc3ccnc(N)n3)c(F)cc2[C@@]1(C#CC1CC1)C(F)(F)F` (single isomer, unassigned) [Example 40] gave an EC50 of 0.0416 µM. `Nc1cc(Cc2ccc3c(c2)NC(=O)N[C@]3(C#CC2CC2)C(F)(F)F)ccn1` [Example 12, (S)-2-amino-4-((4-(cyclopropylethynyl)-2-oxo-4-(trifluoromethyl)-1,2,3,4-tetrahydroquinazolin-7-yl)methyl)pyridin-1-ium 2,2,2-trifluoroacetate] showed an EC50 of 0.132 µM. Compound `Nc1ncnc(Cc2ccc3c(c2)NC(=O)N[C@]3(C#CC2CC2)C(F)(F)F)n1` [Example 49, (S)-7-((4-amino-1,3,5-triazin-2-yl)methyl)-4-(cyclopropyl-ethynyl)-4-(trifluoromethyl)-3,4-dihydroquinazolin-2(1H)-one] has an EC50 of 0.146 µM. In the case of `Cc1nc(C)c(Cc2ccc3c(c2)NC(=O)N[C@]3(C#CC2CC2)C(F)(F)F)c(=O)[nH]1` [Example 19, (S)-4-(cyclopropylethynyl)-7-((2,4-dimethyl-6-oxo-1,6-dihydropyrimidin-5-yl)meth-yl)-4-(trifluoromethyl)-3,4-dihydroquinazolin-2(1H)-one], the EC50 is reported as 0.136 µM. In the case of `Nc1cccc(Cc2ccc3c(c2)NC(=O)N[C@]3(C#CC2CC2)C(F)(F)F)n1` [Example 35, (S)-7-((6-aminopyridin-2-yl)methyl)-4-(cyclopropylethynyl)-4-(trifluoromethyl)-3,4-dihydroquinazolin-2(1H)-one], the EC50 is reported as 0.106 µM. In the case of `Nc1nc(Cl)cc(Cc2ccc3c(c2)NC(=O)N[C@]3(C#CC2CC2)C(F)(F)F)n1` [Example 48, (S)-7-((2-amino-6-chloropyrimidin-4-yl)methyl)-4-(cyclopropylethynyl)-4-(trifluoromethyl)-3,4-dihydroquinazolin-2(1H)-one], the EC50 is reported as 0.142 µM. `NS(=O)(=O)c1ccc(Cc2ccc3c(c2)NC(=O)N[C@]3(C#CC2CC2)C(F)(F)F)c(F)c1` [Example 6, (S)-4-((4-(cyclopropylethynyl)-2-oxo-4-(trifluoromethyl)-1,2,3,4-tetrahydroquinazolin-7-yl)methyl)-3-fluorobenzenesulfonamide] gave an EC50 of 0.284 µM. Compound `Cc1nc(CO)[nH]c(=O)c1Cc1ccc2c(c1)NC(=O)N[C@]2(C#CC1CC1)C(F)(F)F` [Example 63, (S)-4-(cyclopropylethynyl)-7-((2-(hydroxymethyl)-4-methyl-6-oxo-1,6-dihydropyrimidin-5-yl)methyl)-4-(trifluoromethyl)-3,4-dihydroquinazolin-2(1H)-one] has an EC50 of 0.176 µM. With `Cc1nc(C)c(Cc2ccc3c(c2)NC(=O)N(C)[C@]3(C#CC2CC2)C(F)(F)F)c(=O)[nH]1` [Example 22] the EC50 was 0.23 µM. `NC(=O)c1c(Cc2ccc3c(c2)NC(=O)N[C@]3(C#CC2CC2)C(F)(F)F)ccnc1N` [Example 55] gave an EC50 of 0.191 µM. For `Cc1ccc(Cc2ccc3c(c2)NC(=O)N[C@]3(C#CC2CC2)C(F)(F)F)c(=O)[nH]1` [Example 1, (S)-4-(cyclopropylethynyl)-7-((6-methyl-2-oxo-1,2-dihydropyridin-3-yl)methyl)-4-(trifluoromethyl)-3,4-dihydroquinazolin-2(1H)-one], the EC50 was 0.12 µM. Compound `Nc1ncc(F)c(Cc2cc3c(cc2F)[C@@](C#CC2CC2)(C(F)(F)F)NC(=O)N3)n1` [Example 29, (S)-7-((2-amino-5-fluoropyr-imidin-4-yl)methyl)-4-(cyclo-propylethynyl)-6-fluoro-4-(trifluoromethyl)-3,4-dihydro-quinazolin-2(1H)-one] has an EC50 of 0.0497 µM. Compound `NC(=O)c1ccc(Cc2ccc3c(c2)NC(=O)N[C@]3(C#CC2CC2)C(F)(F)F)cc1` [Example 8, (S)-4-((4-(cyclopropylethynyl)-2-oxo-4-(trifluoromethyl)-1,2,3,4-tetrahydroquinazolin-7-yl)meth-yl)benzamide] has an EC50 of 0.262 µM. With `O=C1Nc2cc(Cc3ccc[nH]c3=O)ccc2[C@@](C#CC2CC2)(C(F)(F)F)N1` [Example 3, (S)-4-(cyclopropylethynyl)-7-((2-oxo-1,2-dihydropyridin-3-yl)-methyl)-4-(trifluoromethyl)-3,4-dihydroquinazolin-2(1H)-one] the EC50 was 0.237 µM. `NS(=O)(=O)c1ccc(Cc2ccc3c(c2)NC(=S)N[C@]3(C#CC2CC2)C(F)(F)F)cc1` [Example 44, (S)-4-((4-(cyclopropylethynyl)-2-thioxo-4-(trifluoromethyl)-1,2,3,4-tetrahydroquinazolin-7-yl)methyl)benzenesulfonamide] was tested, and the EC50 was 0.18 µM. `Nc1ccc(F)c(Cc2ccc3c(c2)NC(=O)N[C@]3(C#CC2CC2)C(F)(F)F)n1` [Example 36, (S)-7-((6-amino-3-fluoro-pyridin-2-yl)methyl)-4-(cyclopropylethynyl)-4-(trifluoromethyl)-3,4-dihydroquinazolin-2(1H)-one] was tested, and the EC50 was 0.155 µM. `Nc1nccc(Cc2cc3c(cc2F)[C@@](C#CC2CC2)(C(F)(F)F)NC(=O)N3)n1` [Example 38, (S)-7-((2-aminopyrimidin-4-yl)methyl)-4-(cyclopropylethynyl)-6-fluoro-4-(trifluoromethyl)-3,4-dihydroquinazolin-2(1H)-one] showed an EC50 of 0.0386 µM. With `Nc1cc(Cc2ccc3c(c2)NC(=O)N[C@]3(C#CC2CC2)C(F)(F)F)ccc1S(N)(=O)=O` [Example 7] the EC50 was 0.23 µM. In the case of `O=C1Nc2cc(Cc3cnccn3)c(F)cc2[C@@](C#CC2CC2)(C(F)(F)F)N1` [Example 51, (S)-4-(cyclopropylethynyl)-6-fluoro-7-(pyrazin-2-ylmeth-yl)-4-(trifluoromethyl)-3,4-dihydroquinazolin-2(1H)-one], the EC50 is reported as 0.0964 µM. Compound `N#Cc1cnccc1Cc1cc2c(cc1F)[C@@](C#CC1CC1)(C(F)(F)F)NC(=O)N2` [Example 56, (S)-4-((4-(cyclopropylethynyl)-6-fluoro-2-oxo-4-(trifluoromethyl)-1,2,3,4-tetrahydroquinazolin-7-yl)methyl)nicotinonitrile] has an EC50 of 0.0835 µM. `Nc1ncc(Cl)c(Cc2ccc3c(c2)NC(=O)N[C@]3(C#CC2CC2)C(F)(F)F)n1` [Example 28, (S)-7-((2-amino-5-chloropyr-imidin-4-yl)methyl)-4-(cyclo-propylethynyl)-4-(trifluoro-methyl)-3,4-dihydroquinazo-lin-2(1H)-one] showed an EC50 of 0.144 µM. `Nc1cc(Cc2ccc3c(c2)NC(=O)N[C@]3(C#CC2CC2)C(F)(F)F)c(F)cn1` [Example 37, (S)-7-((2-amino-5-fluoro-pyridin-4-yl)methyl)-4-(cyclopropylethynyl)-4-(trifluoromethyl)-3,4-dihydroquinazolin-2(1H)-one] was tested, and the EC50 was 0.168 µM.
